Results as given in patent publication US7163950B1, “Surfactants as malarial chloroguine resistance reversal agents” (priority 2000, dated 2007).
Like-named read-outs stand apart in the source and are kept apart here.

Legend:
[1] = tested on: P. falciparum; test: microbe, parasite or virus in culture; details: Plasmodium falciparum, read-out: chloroquine IC50, control (no NPE added), control without NPE, used to calculate the degree of chloroquine resistance
Method: (§1) NPE solutions with increasing average EO content were tested for anti-P. falciparum activity and the IC50S ? of these materials were determined using a non-linear regression analysis.
(§2) P. falciparum cultures were grown in A+ blood obtained by venipuncture of volunteers. Cultures of the laboratory lines ItG and 3D7 [Dolan, 1993] and the patient isolates were maintained by the method of Trager and Jensen [Trager, 1976] using RPMI 1640 supplemented with 10% human serum and 50 μM hypoxanthine. […] In vitro drug susceptibility testing was performed using the WHO In Vitro Micro Test (Mark III) [1997]. The IC50 values were determined using a non-linear regression analysis of the dose-response curve.

[2] = tested on: P. falciparum; details: read-out: chloroquine IC50, control (no NPE added); control without NPE, used to calculate the degree of chloroquine resistance
Method: as §1, §2

CCN(CC)CCCC(C)Nc1ccnc2cc(Cl)ccc12 (centres unmarked) [chloroquine]
IC50 [1]: 240 ± 60 nM | IC50 [2]: 274 ± 56 nM
